# Literature values in paper PMC8679591, “FAPI-74 PET/CT Using Either ^18F-AlF or Cold-Kit ^68Ga Labeling: Biodistribution, Radiation Dosimetry, and Tumor Delineation in Lung Cancer Patients” (Journal of Nuclear Medicine, 2021).
row,SMILES,Effective dose
1,N[C@@H](C[C@H](CCC[18F])C(=O)O)C(=O)O [(S)-4-(3-^18F-fluoropropyl)-L-glutamic acid],0.032 mSv/MBq
2,N[C@@H](Cc1ccc(OCC[18F])cc1)C(=O)O [O-(2-^18F-fluoroethyl)-L-tyrosine],0.016 mSv/MBq
3,"Cc1cn([C@H]2C[C@H]([18F])[C@@H](CO)O2)c(=O)[nH]c1=O [^18F-3′-deoxy-3′-^18F-fluorothymidine, 3′-deoxy-3′-^18F-fluorothymidine]",0.028 mSv/MBq
4,O=C(O)CC[C@H](NC(=O)N[C@@H](CCCCNC(=O)[C@H](Cc1ccc2ccccc2c1)NC(=O)c1ccc(CNC(=O)[C@H](CCC(=O)O)NC(=O)[C@H](CCC(=O)O)NC(=O)c2ccc([18F])nc2)cc1)C(=O)O)C(=O)O [^18F-PSMA-1007],0.022 mSv/MBq
5,C[N+](C)(CF)CCO [^18F-fluorocholine],0.031 mSv/MBq
6,O=[N+]([O-])c1nccn1CC(O)C[18F] (centres unmarked) [^18F-fluoromisonidazole],0.013 mSv/MBq
7,CNc1ccc(/C=C/c2ccc(OCCOCCOCC[18F])cc2)cc1 [^18F-flurbetaben],0.015 mSv/MBq
8,CC(C)(C)n1ncc(OCc2ccc(COCC[18F])cc2)c(Cl)c1=O [^18F-flurpiridaz],0.019 mSv/MBq
9,"N#C[C@@H]1CCCN1C(=O)CNC(=O)c1ccnc2ccc(OCCCN3CCN(C(=O)CN4CCN(CC(=O)O)CCN(CC(=O)O)CCN(CC(=O)O)CC4)CC3)cc12 [^68Ga-FAPI-2, metal not drawn]",0.008–0.015 mSv/MBq
10,"N#C[C@@H]1CC(F)(F)CN1C(=O)CNC(=O)c1ccnc2ccc(OCCCN3CCN(C(=O)CN4CCN(CC(=O)O)CCN(CC(=O)O)CCN(CC(=O)O)CC4)CC3)cc12 [^68Ga-FAPI-4, metal not drawn]",0.008–0.015 mSv/MBq
11,O=C([O-])CN(CCN(CC(=O)[O-])Cc1cc(CCC(=O)NCCCCCC(=O)NCCCC[C@H](NC(=O)N[C@@H](CCC(=O)O)C(=O)O)C(=O)O)ccc1[O-])Cc1cc(CCC(=O)O)ccc1[O-].[68Ga+3].[OH3+] [^68Ga-PSMA-11],0.023 mSv/MBq
